Experiments:
winter wheat [1] = assay: Normalised plant count of winter wheat, field trials (Example 1, FIG. 1); format: in vivo; settings: average of 6 field trials
Procedure: A herbicide composition consisting of an SC of 450 g/L napropamide-m was applied to winter wheat either pre- or post-emergence. The normalised plant count was determined as a percentage of the plant count observed in the absence of the herbicide. Control experiments were conducted with the conventional herbicide Trooper, as defined above.
Results from an average of 6 field trials (napropamide; Trooper low dose: 4 sites; Trooper high dose: 2 sites) with herbicide application in October are shown in FIG. 1. […] Plant survival after emergence was 100% of the survival rate in the absence of napropamide.

winter wheat [2] = assay: Normalised plant growth of winter wheat at another site (Example 1, FIG. 2); format: in vivo; settings: pre-em
Procedure: Similar experiments were carried out at another site where the effect of seed depth was to be determined, see Example 3 below. Control experiments were conducted with the conventional herbicides Trooper and Xerton, as defined above.

CCN(CC)C(=O)C(C)Oc1cccc2ccccc12 (stereo not drawn) [napropamide, N,N-diethyl-2-(α-naphthoxy) propionamide]
Plant survival after emergence (winter wheat [1]; % of the survival rate in the absence of napropamide): 100% | effect on the growth of winter wheat (winter wheat [1]; herbicide application in October): no detectable effect | Plant survival after emergence (winter wheat [2]): comparable with that following application of conventional herbicides Trooper/Malibu and Xerton | effect on the growth of winter wheat (winter wheat [2]): very low effect
